Measurements published in PubChem BioAssay AID1918946 (Molecular Pharmacology Branch, DTP, NCI, 2023).

Test system: 885512-296-R-J2-PDC complex spheroid viability
Test: Anticancer human tumor 885512-296-R-J2-PDC patient-derived breast carcinoma cell line growth inhibition
Settings: for IC50: curve of first compound; for viability, T/C: stronger effect = lower value
Method in brief: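 Multicellular complex spheroids of tumor cells with human endothelial cells (HUVEC) and mesenchymal stem cells; the LSD1 inhibitor iadademstat was combined with standard-of-care or investigational agents. Top concentration at or near clinical Cmax, half-log dilutions; final DMSO ≤0.25%.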

[1] = second compound 0.1 µM, first compound 0.00949 µM
[2] = second compound 0.1 µM, first compound 0.03 µM
[3] = second compound 0.1 µM, first compound 0.0949 µM
[4] = second compound 0.1 µM, first compound 0.3 µM
[5] = second compound 0.1 µM, first compound 0.949 µM
[6] = second compound 0.1 µM, first compound 3 µM
[7] = second compound 0.316 µM, first compound 0.00949 µM
[8] = second compound 0.316 µM, first compound 0.03 µM
[9] = second compound 0.316 µM, first compound 0.0949 µM
[10] = second compound 0.316 µM, first compound 0.3 µM
[11] = second compound 0.316 µM, first compound 0.949 µM
[12] = second compound 0.316 µM, first compound 3 µM
[13] = second compound 1 µM, first compound 0.00949 µM
[14] = second compound 1 µM, first compound 0.03 µM
[15] = second compound 1 µM, first compound 0.0949 µM
[16] = second compound 1 µM, first compound 0.3 µM
[17] = second compound 1 µM, first compound 0.949 µM
[18] = second compound 1 µM, first compound 3 µM
[19] = second compound 3.16 µM, first compound 0.00949 µM
[20] = second compound 3.16 µM, first compound 0.03 µM
[21] = second compound 3.16 µM, first compound 0.0949 µM
[22] = second compound 3.16 µM, first compound 0.3 µM
[23] = second compound 3.16 µM, first compound 0.949 µM
[24] = second compound 3.16 µM, first compound 3 µM
[25] = second compound 10 µM, first compound 0.00949 µM
[26] = second compound 10 µM, first compound 0.03 µM
[27] = second compound 10 µM, first compound 0.0949 µM
[28] = second compound 10 µM, first compound 0.3 µM
[29] = second compound 10 µM, first compound 0.949 µM
[30] = second compound 10 µM, first compound 3 µM
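Also: spheroids exposed to agents for 7 days before viability read.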

SMILES: NS(=O)(=O)OCC1CC(n2ccc3c(NC4CCc5ccccc54)ncnc32)CC1O (stereo not given) + NC1CC1c1ccc(-c2cccc(O)c2)cc1
- IC50 (second compound 0.1 µM): < 9.49 nM
- IC50 (second compound 0.316 µM): < 9.49 nM
- IC50 (second compound 1 µM): < 9.49 nM
- IC50 (second compound 3.16 µM): < 9.49 nM
- IC50 (second compound 10 µM): < 9.49 nM
- viability, T/C [1]: 15.9%
- viability, T/C [2]: 6.61%
- viability, T/C [3]: 2.38%
- viability, T/C [4]: 1.74%
- viability, T/C [5]: 1.42%
- viability, T/C [6]: 1.17%
- viability, T/C [7]: 13.4%
- viability, T/C [8]: 5.58%
- viability, T/C [9]: 2.27%
- viability, T/C [10]: 1.48%
- viability, T/C [11]: 1.54%
- viability, T/C [12]: 1.19%
- viability, T/C [13]: 11.8%
- viability, T/C [14]: 5.8%
- viability, T/C [15]: 2.84%
- viability, T/C [16]: 1.53%
- viability, T/C [17]: 1.65%
- viability, T/C [18]: 1.49%
- viability, T/C [19]: 10.9%
- viability, T/C [20]: 4.37%
- viability, T/C [21]: 2.28%
- viability, T/C [22]: 1.46%
- viability, T/C [23]: 1.66%
- viability, T/C [24]: 1.1%
- viability, T/C [25]: 8.81%
- viability, T/C [26]: 4.76%
- viability, T/C [27]: 1.87%
- viability, T/C [28]: 1.89%
- viability, T/C [29]: 0.97%
- viability, T/C [30]: 0.66%

SMILES: Nc1ccccc1NC(=O)c1ccc(CNC(=O)OCc2cccnc2)cc1 + NC1CC1c1ccc(-c2cccc(O)c2)cc1
- IC50 (second compound 0.1 µM): 48.2 nM
- IC50 (second compound 0.316 µM): 50.4 nM
- IC50 (second compound 1 µM): 41.9 nM
- IC50 (second compound 3.16 µM): 43.1 nM
- IC50 (second compound 10 µM): 23.9 nM
- viability, T/C [1]: 99.3%
- viability, T/C [2]: 63.1%
- viability, T/C [3]: 30.5%
- viability, T/C [4]: 17.5%
- viability, T/C [5]: 6.69%
- viability, T/C [6]: 0.26%
- viability, T/C [7]: 104%
- viability, T/C [8]: 61.7%
- viability, T/C [9]: 37.2%
- viability, T/C [10]: 12.3%
- viability, T/C [11]: 5.8%
- viability, T/C [12]: 0.31%
- viability, T/C [13]: 102%
- viability, T/C [14]: 53.8%
- viability, T/C [15]: 35.2%
- viability, T/C [16]: 15%
- viability, T/C [17]: 5.26%
- viability, T/C [18]: 0.29%
- viability, T/C [19]: 94.2%
- viability, T/C [20]: 57.9%
- viability, T/C [21]: 32.8%
- viability, T/C [22]: 12.7%
- viability, T/C [23]: 5.2%
- viability, T/C [24]: 0.22%
- viability, T/C [25]: 65.8%
- viability, T/C [26]: 45.7%
- viability, T/C [27]: 27.9%
- viability, T/C [28]: 12.9%
- viability, T/C [29]: 4.05%
- viability, T/C [30]: 0.22%

SMILES: O=C(C=Cc1cccc(S(=O)(=O)Nc2ccccc2)c1)NO + NC1CC1c1ccc(-c2cccc(O)c2)cc1
- IC50 (second compound 0.1 µM): > 3000 nM
- IC50 (second compound 0.316 µM): 41.9 nM
- IC50 (second compound 1 µM): 71.5 nM
- IC50 (second compound 3.16 µM): 39.1 nM
- IC50 (second compound 10 µM): 19.5 nM
- viability, T/C [1]: 104%
- viability, T/C [2]: 66.5%
- viability, T/C [3]: 26.4%
- viability, T/C [4]: 15.9%
- viability, T/C [5]: 2.01%
- viability, T/C [6]: 136%
- viability, T/C [7]: 106%
- viability, T/C [8]: 61.2%
- viability, T/C [9]: 23.3%
- viability, T/C [10]: 12%
- viability, T/C [11]: 2.58%
- viability, T/C [12]: 116%
- viability, T/C [13]: 96.3%
- viability, T/C [14]: 73.6%
- viability, T/C [15]: 26.6%
- viability, T/C [16]: 13.9%
- viability, T/C [17]: 1.94%
- viability, T/C [18]: 127%
- viability, T/C [19]: 92.1%
- viability, T/C [20]: 53.6%
- viability, T/C [21]: 26.4%
- viability, T/C [22]: 14.4%
- viability, T/C [23]: 1.95%
- viability, T/C [24]: 109%
- viability, T/C [25]: 62.8%
- viability, T/C [26]: 42.4%
- viability, T/C [27]: 16.9%
- viability, T/C [28]: 8.77%
- viability, T/C [29]: 0.61%
- viability, T/C [30]: 82.6%
